Test results as given in BigSolDB 2.1.

C1=Cc2cccc3cccc1c23
Details | solubility (mole fraction)
in ethanol, 278.1 K | 0.00462
in ethanol, 283.53 K | 0.00579
in ethanol, 288.25 K | 0.00709
in ethanol, 293.25 K | 0.00891
in ethanol, 298.2 K | 0.0108
in ethanol, 303.2 K | 0.0133
in ethanol, 308.2 K | 0.0165
in ethanol, 313.05 K | 0.0197
in ethanol, 318.25 K | 0.0245
in ethanol, 323.15 K | 0.0296
in isopropanol, 278.3 K | 0.00469
in isopropanol, 283.07 K | 0.00592
in isopropanol, 288.33 K | 0.0077
in isopropanol, 293.2 K | 0.00967
in isopropanol, 298.07 K | 0.012
in isopropanol, 303.3 K | 0.0152
in isopropanol, 308.05 K | 0.0189
in isopropanol, 312.95 K | 0.0236
in isopropanol, 318.4 K | 0.0302
in isopropanol, 323.25 K | 0.0372
in n-butanol, 278.25 K | 0.0101
in n-butanol, 283.05 K | 0.0122
in n-butanol, 288.05 K | 0.0154
in n-butanol, 293.25 K | 0.019
in n-butanol, 298.25 K | 0.0237
in n-butanol, 303.15 K | 0.029
in n-butanol, 308.1 K | 0.0349
in n-butanol, 313.2 K | 0.0427
in n-butanol, 318.05 K | 0.0525
in n-butanol, 323.05 K | 0.0639
in toluene, 278.47 K | 0.104
in toluene, 283.33 K | 0.122
in toluene, 288.1 K | 0.142
in toluene, 293.15 K | 0.167
in toluene, 298.23 K | 0.194
in toluene, 303.15 K | 0.224
in toluene, 307.95 K | 0.256
in toluene, 312.95 K | 0.299
in toluene, 318.3 K | 0.346
in toluene, 323.2 K | 0.398
